The test system of assay [1] is angiotensin II infused rats. The assay is described as follows: Assay A, angiotensin II infusion model: systolic blood pressure by tail-cuff. It counts as in vivo, Male Wistar rats. As to conditions: angiotensin II 25 ng/min sc, 1% NaCl; eplerenone 100 mpk; aldosterone in adrenalectomized rats; 4 weeks. Here is the method:
Human cardiovascular disorders are complex conditions, often initiated by vascular hypertension or a myocardial infarction (MI). In order to determine the probable effectiveness of a therapy for cardiovascular disorders, it is important to determine the potency of components in several assays. Accordingly, in Assay “A”, the efficacy of the aldosterone antagonist epeplerenone (epoxymexrenone) was determined in a hypertensive rat model with vascular inflammation, using angiotensin II infusion. In Assay “B” a study is described evaluating the efficacy of the aldosterone antagonist epeplerenone (epoxymexrenone) in a rat model using aldosterone infusion to produce hypertension with vascular inflammation. In Assay “C” a further study is described evaluating the efficacy of the aldosterone antagonist epeplerenone (epoxymexrenone) in a rat model using aldosterone infusion to produce hypertension with vascular inflammation.
Assay A: In Vivo Angiotensin II Infusion Model
Male Wistar rats (n=50, 10/group; BW=200 g)
SBP measured by tail-cuff every week

For assay [2], the system named is Atrial natriuretic factor (ANP). Nature of the assay: Assay C: ANP mRNA in left ventricle by TaqMan RT-PCR. Type of assay: in vivo, Male Sprague-Dawley rats. As to conditions: for ANP mRNA: arbitrary units relative to cyclophilin expression; for ANP mRNA (AU): mean ± SEM after 30 days of treatment, eplerenone dose 100 mg/kg/day, relative to cyclophilin expression. The procedure:
The procedure of Assay B was expanded upon in a further study. […] Myocardial tissue from animals in each treatment group was examined after 7, 14, or 30 days of treatment.
Potassium chloride supplementation was added to the saline solution in order to prevent the potential hypokalemia associated with aldosterone excess.
At the time of the surgery, an Alzet 2002 osmotic minipump (Alza Corp., Palo Alto, Calif.) containing either vehicle (9% ethanol/87% propylene glycol/4% dH2O) or 1.0 mg/mL d-aldosterone (Sigma Chemical, St. Louis, Mo.) was inserted subcutaneously at the nape of the neck. Aldosterone was administered at a dose of 0.75 µg/hour. […] Animals were sacrificed from each group (n=8-13) after 7, 14, or 30 days of treatment.
Following exsanguination, hearts and kidneys were isolated, removed, rinsed in cold phosphate-buffered saline, and blotted dry. Kidneys were immediately bifurcated through the long axis with a razor blade and placed in 10% neutral buffered formalin (NBF, Richard-Allen Scientific, Kalamazoo, Mich.). For the hearts, the right ventricle (RV) was cut away from the left ventricle (LV), both ventricles were weighed using a Mettler AE163 balance (Mettler-Toledo, Inc., Hightstown, N.J.), and the RV was placed in 10% NBF. A 2 mm coronal slab of the LV apex was removed and frozen with dry ice/isopentane for analysis of gene expression and the remaining portion of the LV was placed in 10% NBF for fixation. Final wet trimming was completed after 3-4 days fixation where a second 2 mm coronal slab was removed for hydroxyproline analysis and a third 2 mm slab was removed from the equatorial region for histology.
The fluorogenic 5′-nuclease assay (TaqMan PCR) using Applied Biosystems' 7700 Sequence Detection System (Applied Biosystems, Foster City, Calif.) allowed for real time detection/quantitation of a specific gene by monitoring the increase in fluorescence of a gene-specific, dye-labeled oligonucleotide probe. Probes for target and reference genes were labeled at the 5′-end with a 6-carboxyfluorescein (6FAM) reporter dye and at the 3′-end with a 6-carboxy-N,N,N′,N′-tetramethylrhodamine (TAMRA) quencher dye. When the probe was annealed to the target gene, fluorescence of 6FAM was prevented by the close proximity of TAMRA. The exonuclease activity of Taq polymerase released the dyes from the oligonucleotide probe by displacing the probe from the target sequence resulting in fluorescence excitation in direct proportion to the amount of target message present. Data analysis was performed using the Sequence Detection System software from Applied Biosystems.
Primers and probes were designed using Oligo Primer Analysis Software, Version 5.0 (National Biosciences Inc. (NBI)-Wojciech Rychlik, Cascade, Colo.). Primers were synthesized by Life Technologies (Grand Island, N.Y.) and probes were synthesized by Applied Biosystems. Primer/probe sets were designed from known sequences of rat genes to be analyzed. All target gene values were normalized to a reference gene, constitutively expressed cyclophilin. Primer/probe sets sequences can be found in Table 8
RNA was extracted from frozen (−70° C.) left ventricle (LV) tissue (approximately 10-20 mg) using 1.5 mL RNA-STAT 60 according to manufacturer's instructions (Leedo Medical Laboratories, Inc., Houston, Tex.). Briefly, tissues were homogenized using a tissue homogenizer equipped with a 5 mm probe (Ultra-Turrax T8 Homogenizer, IKA Works, Inc. Wilmington, N.C.). Following homogenization, an equal volume of molecular grade chloroform (Sigma Chemical Co., St. Louis, Mo.) was incubated with periodic mixing for 10 min at room temperature. Samples were centrifuged at 12,000 g for 10 min and RNA was precipitated from the top layer by adding an equal volume of molecular grade isopropanol (Sigma Chemical Co.) followed by an overnight incubation at −80° C.

The test system of assay [3] is coronary arteries of angiotensin II/salt-treated animals. The assay is described as follows: Assay A: heart histology (hematoxylin&eosin), vascular inflammatory lesions and myocardial injury. Type of assay: in vivo, Male Wistar rats. The settings on record: eplerenone 100 mpk; for Vascular inflammation and myocardial injury in the heart: angiotensin II infused rats, aldosterone replacement in adrenalectomized rats. An excerpt: Sacrifice by exanguination after 4 weeks. Blood was be collected in dry tubes for determination of serum electrolytes and in EDTA-containing tubes for measurement of aldosterone and corticosterone levels Hearts were stained with hematoxylin&eosin and have been analyzed for determination of morphologic abnormalities (i.e. necrosis, vascular injury).

[4] abbreviates: mean ± SEM after 7 days of treatment, eplerenone 100 mg/kg/day.
The mark [5] stands for this setting: mean ± SEM after 14 days of treatment, eplerenone 100 mg/kg/day.

Where “and” joins values, the source holds several entries; their conditions need not be identical. Equal entries are not always repeated.

For `C[C@]12CCC(=O)C=C1CC[C@@H]1[C@@H]2[C@@H](O)C[C@]2(C=O)[C@@H](C(=O)CO)CC[C@@H]12` [Aldosterone], in assay [1], the Systolic Blood Pressure entry is “increased blood pressure”. Further, the ANP in assay [2] (14-day protocol, mRNA, individual rats and group Mean, listed as Aldosterone + salt) is 4.58 AU and 7.75 AU and 7.34 AU and 4.18 AU and 1.59 AU and 17.81 AU and 6.48 AU and 8.08 AU and 2.51 AU; in assay [2] (14-day protocol, mRNA, individual rats and group Mean, listed as Aldosterone + salt, mean) it was 6.70 AU; in assay [2] (30-day protocol, mRNA, individual rats and group Mean, listed as Aldosterone + salt), 23.59 AU and 43.11 AU and 14.83 AU (2×) and 18.90 AU and 23.43 AU and 15.14 AU and 6.77 AU and 20.97 AU; in assay [2] (30-day protocol, mRNA, individual rats and group Mean, listed as Aldosterone + salt, group mean) it was 20.17 AU. For the same molecule, the “ANP mRNA levels” value in assay [2] (aldosterone + salt vs vehicle + salt (Tables 11-13)) was “Significant elevations”. Also, the “ANP mRNA” value in assay [2] (setting [4]) is listed as 8.72 ± 1.51 AU; in assay [2] (setting [5]) it was 6.70 ± 1.59 AU. In addition, in assay [2], the “ANP mRNA (AU)” value was 20.17 ± 3.36 AU. Moreover, the “Vascular inflammation and myocardial injury in the heart” value in assay [3] was “restored the severe coronary and myocardial inflammation and injury”.
For `COC(=O)[C@@H]1CC2=CC(=O)CC[C@]2(C)[C@@]23O[C@@H]2C[C@@]2(C)[C@@H](CC[C@@]24CCC(=O)O4)[C@H]13` [Eplerenone], the Systolic Blood Pressure entry in assay [1] is on record as “Neither eplerenone nor adrenalectomy reduced blood pressure”. The ANP in assay [2] (14-day protocol, mRNA, individual rats and group Mean, listed as Eplerenone + aldosterone + salt) is 2.84 AU and 3.22 AU and 6.39 AU and 4.04 AU and 25.90 AU and 5.52 AU and 3.57 AU and 2.29 AU and 8.37 AU and 4.24 AU; in assay [2] (14-day protocol, mRNA, individual rats and group Mean, listed as Eplerenone + aldosterone + salt, mean) it was 6.64 AU; in assay [2] (individual rats and group mean, 7 days of treatment, mRNA relative to cyclophilin, aldosterone + salt, eplerenone 100 mg/kg/day) it was 1.26 AU and 1.81 AU and 0.59 AU and 2.58 AU and 4.48 AU and 4.98 AU and 3.82 AU and 3.59 AU and 0.95 AU and 3.67 AU; in assay [2] (individual rats and group mean, 7 days of treatment, mRNA relative to cyclophilin, aldosterone + salt, eplerenone 100 mg/kg/day, group mean) it was 2.77 AU. The “ANP mRNA upregulation” value is on record as “not after 14 days” in assay [2] (after 14 days of treatment, eplerenone 100 mg/kg/day) and “significantly reduced” in assay [2] (after 30 days of treatment, eplerenone 100 mg/kg/day). Also, the “ANP mRNA” value in assay [2] (setting [4]) is reported as 2.77 ± 0.49 AU; in assay [2] (setting [5]) it was 6.64 ± 2.22 AU. Further, the “ANP mRNA (AU)” value in assay [2] was 9.20 ± 2.44 AU. The “Vascular inflammation and myocardial injury in the heart” value in assay [3] is recorded as “prevention”. Moreover, the “Animals with vascular inflammatory changes (lesions) in the coronary arteries” value in assay [3] (of ten animals per group, angiotensin II/salt, 4 weeks) is recorded as “one of the ten”.

(Values after patent US6716829B2, “Aldosterone antagonist and cyclooxygenase-2 inhibitor combination therapy to prevent or treat inflammation-related cardiovascular disorders” (Pharmacia Corporation, priority 2000, dated 2004).)
